# Test results from publication PMC7367873, “Dissecting the sequence determinants for dephosphorylation by the catalytic subunits of phosphatases PP1 and PP2A” (Nature Communications, 2020).
# Tested on: GFP-14-3-3β and its binding proteins
# Test: GFP-14-3-3β co-IP with LC-MS/MS label-free quantification, untreated versus PP1c-treated
# Set-up: species or system human
substance,measurement,setting,value
PP1c: recombinant catalytic subunit of PP1,number of proteins significantly dissociating from 14-3-3,"1 µM recombinant PP1c, 1 h at 30 °C, FDR 0.05, of 108 interacting proteins, three replicates",56 proteins
same,"Difference (log2), PP1 vs untreated","log2 difference, pairwise comparison PP1 vs untreated, label-free quantification, 3 replicates each",5.428
same,number of dissociating proteins with at least one PP1c-regulated phosphorylation site,"mapped onto phosphoproteomic dataset, of 56 proteins",35 proteins
same,14-3-3-protein interactions disrupted,recombinant PP1c,52%
